From patent US10167262B2, “Herbicidal substituted 3-arylpyrazoles” (FMC CORPORATION, priority 2014, dated 2019)

Experiments:
Type in all cases: in vivo
[1] = system: barnyardgrass (Echinochloa crus-galli); assay: Test A pre-/postemergence greenhouse herbicide test, visual injury rating 0-100
Procedure, shortened: (§1)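 Test chemicals in a non-phytotoxic solvent/surfactant blend were sprayed onto loam–sand soil after planting (pre) and onto 2–10 cm seedlings at one to two leaves (post). Greenhouse hold approx. 10 days; injury then judged visually.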

[2] = system: wheat (Triticum aestivum); assay: as above
Procedure, shortened: as §1

[3] = system: velvetleaf (Abutilon theophrasti); assay: as above
Procedure, shortened: as §1

[4] = system: giant foxtail (Setaria faberii); assay: as above
Procedure, shortened: as §1

corn (Zea mays) = assay: as above
Procedure, shortened: as §1

[5] = system: morningglory (Ipomoea spp.); assay: as above
Procedure, shortened: as §1

[6] = system: large (Lg) crabgrass (Digitaria sanguinalis); assay: as above
Procedure, shortened: as §1

[7] = system: pigweed (Amaranthus retroflexus); assay: as above
Procedure, shortened: as §1

[8] = system: velvetleaf (Abutilon theophrasti); assay: Test C pre-/postemergence greenhouse test, plant response rating 0-100
Procedure, shortened: (§2)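 Pre- and postemergence greenhouse test: seeds sown in loam/sand and treated preemergence, or plants at 2–18 cm (1- to 4-leaf stage) in peat-based medium sprayed postemergence, with compounds in non-phytotoxic solvent plus surfactant. Visual rating versus untreated controls after 13–15 days, 0 (no effect) to 100 (complete control).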

[9] = system: johnsongrass (Sorghum halepense); assay: as above
Procedure, shortened: as §2

[10] = system: lambsquarters (Chenopodium album); assay: as above
Procedure, shortened: as §2

[11] = system: morningglory (Ipomoea coccinea); assay: as above
Procedure, shortened: as §2

[12] = Postemergence, 250 g ai/ha, scale 0 to 100
[13] = Postemergence, 500 g ai/ha, scale 0 to 100

## C=CCn1cc(C(=O)c2ccccc2)c(-c2cc(Cl)cc(Cl)c2)n1 [Compound 60]
[1]; Postemergence, 125 g ai/ha
  Plant response rating (0 to 100 scale), Barnyardgrass: 0
[1]; Postemergence, 500 g ai/ha
  Plant response rating (0 to 100 scale), Barnyardgrass: 0
[1]; Preemergence, 125 g ai/ha
  Barnyardgrass plant response rating (0 = no effect, 100 = complete control): 0
[1]; Preemergence, 500 g ai/ha
  Plant response rating (0 to 100 scale), Barnyardgrass: 0
[2]; Postemergence, 125 g ai/ha
  Plant response rating (0 to 100 scale), Wheat: 0
[2]; Postemergence, 500 g ai/ha
  Plant response rating (0 to 100 scale), Wheat: 0
[2]; Preemergence, 125 g ai/ha
  Wheat plant response rating (0 = no effect, 100 = complete control): 0
[3]; Postemergence, 125 g ai/ha
  Plant response rating (0 to 100 scale), Velvetleaf: 90
[3]; Postemergence, 500 g ai/ha
  Plant response rating (0 to 100 scale), Velvetleaf: 90
[3]; Preemergence, 125 g ai/ha
  Velvetleaf plant response rating (0 = no effect, 100 = complete control): 30
[3]; Preemergence, 500 g ai/ha
  Plant response rating (0 to 100 scale), Velvetleaf: 40
[4]; Postemergence, 125 g ai/ha
  Plant response rating (0 to 100 scale), Foxtail, Giant: 0
[4]; Postemergence, 500 g ai/ha
  Plant response rating (0 to 100 scale), Foxtail, Giant: 0
[4]; Preemergence, 125 g ai/ha
  Foxtail, Giant plant response rating (0 = no effect, 100 = complete control): 0
[4]; Preemergence, 500 g ai/ha
  Plant response rating (0 to 100 scale), Foxtail, Giant: 0
Corn (Zea mays); Postemergence, 125 g ai/ha
  Plant response rating (0 to 100 scale), Corn: 0
Corn (Zea mays); Postemergence, 500 g ai/ha
  Plant response rating (0 to 100 scale), Corn: 0
Corn (Zea mays); Preemergence, 125 g ai/ha
  Corn plant response rating (0 = no effect, 100 = complete control): 0
Corn (Zea mays); Preemergence, 500 g ai/ha
  Plant response rating (0 to 100 scale), Corn: 0
[5]; Postemergence, 125 g ai/ha
  Plant response rating (0 to 100 scale), Morningglory: 0
[5]; Postemergence, 500 g ai/ha
  Plant response rating (0 to 100 scale), Morningglory: 0
[5]; Preemergence, 125 g ai/ha
  Morningglory plant response rating (0 = no effect, 100 = complete control): 0
[5]; Preemergence, 500 g ai/ha
  Plant response rating (0 to 100 scale), Morningglory: 0
[6]; Postemergence, 125 g ai/ha
  Plant response rating (0 to 100 scale), Crabgrass, Large: 0
[6]; Postemergence, 500 g ai/ha
  Plant response rating (0 to 100 scale), Crabgrass, Large: 0
[6]; Preemergence, 125 g ai/ha
  Crabgrass, Large plant response rating (0 = no effect, 100 = complete control): 0
[6]; Preemergence, 500 g ai/ha
  Plant response rating (0 to 100 scale), Crabgrass, Large: 0
[7]; Postemergence, 125 g ai/ha
  Plant response rating (0 to 100 scale), Pigweed: 80
[7]; Postemergence, 500 g ai/ha
  Plant response rating (0 to 100 scale), Pigweed: 90
[7]; Preemergence, 125 g ai/ha
  Pigweed plant response rating (0 = no effect, 100 = complete control): 60
[7]; Preemergence, 500 g ai/ha
  Plant response rating (0 to 100 scale), Pigweed: 90
[8]; Postemergence, 62 g ai/ha
  Plant response rating (0 to 100), Velvetleaf: 70
[8]; Postemergence, 125 g ai/ha
  Plant response rating (0 to 100), Velvetleaf: 70
[8]; [12]
  Plant response rating, Velvetleaf: 80
[9]; Postemergence, 62 g ai/ha
  Plant response rating (0 to 100), Johnsongrass: 0
[9]; Postemergence, 125 g ai/ha
  Plant response rating (0 to 100), Johnsongrass: 5
[9]; [12]
  Plant response rating, Johnsongrass: 5
[10]; Postemergence, 62 g ai/ha
  Plant response rating (0 to 100), Lambsquarters: 5
[10]; Postemergence, 125 g ai/ha
  Plant response rating (0 to 100), Lambsquarters: 40
[10]; [12]
  Plant response rating, Lambsquarters: 60
[11]; Postemergence, 62 g ai/ha
  Plant response rating (0 to 100), Morningglory: 0
[11]; Postemergence, 125 g ai/ha
  Plant response rating (0 to 100), Morningglory: 0
[11]; [12]
  Plant response rating, Morningglory: 0

## CCOC(OCC)(c1cccs1)c1c[nH]nc1-c1cc(Cl)cc(Cl)c1 [Compound 27]
[1]; Postemergence, 125 g ai/ha
  Plant response rating (0 to 100 scale), Barnyardgrass: 0
[1]; Postemergence, 500 g ai/ha
  Plant response rating (0 to 100 scale), Barnyardgrass: 0
[1]; Preemergence, 125 g ai/ha
  Barnyardgrass plant response rating (0 = no effect, 100 = complete control): 0
[1]; Preemergence, 500 g ai/ha
  Plant response rating (0 to 100 scale), Barnyardgrass: 0
[2]; Postemergence, 125 g ai/ha
  Plant response rating (0 to 100 scale), Wheat: 0
[2]; Postemergence, 500 g ai/ha
  Plant response rating (0 to 100 scale), Wheat: 0
[2]; Preemergence, 125 g ai/ha
  Wheat plant response rating (0 = no effect, 100 = complete control): 0
[2]; Preemergence, 500 g ai/ha
  Plant response rating (0 to 100 scale), Wheat: 0
[3]; Postemergence, 125 g ai/ha
  Plant response rating (0 to 100 scale), Velvetleaf: 80
[3]; Postemergence, 500 g ai/ha
  Plant response rating (0 to 100 scale), Velvetleaf: 90
[3]; Preemergence, 125 g ai/ha
  Velvetleaf plant response rating (0 = no effect, 100 = complete control): 80
[3]; Preemergence, 500 g ai/ha
  Plant response rating (0 to 100 scale), Velvetleaf: 80
[4]; Postemergence, 125 g ai/ha
  Plant response rating (0 to 100 scale), Foxtail, Giant: 0
[4]; Postemergence, 500 g ai/ha
  Plant response rating (0 to 100 scale), Foxtail, Giant: 0
[4]; Preemergence, 125 g ai/ha
  Foxtail, Giant plant response rating (0 = no effect, 100 = complete control): 0
[4]; Preemergence, 500 g ai/ha
  Plant response rating (0 to 100 scale), Foxtail, Giant: 0
Corn (Zea mays); Postemergence, 125 g ai/ha
  Plant response rating (0 to 100 scale), Corn: 0
Corn (Zea mays); Postemergence, 500 g ai/ha
  Plant response rating (0 to 100 scale), Corn: 0
Corn (Zea mays); Preemergence, 125 g ai/ha
  Corn plant response rating (0 = no effect, 100 = complete control): 0
Corn (Zea mays); Preemergence, 500 g ai/ha
  Plant response rating (0 to 100 scale), Corn: 0
[5]; Postemergence, 125 g ai/ha
  Plant response rating (0 to 100 scale), Morningglory: 0
[5]; Postemergence, 500 g ai/ha
  Plant response rating (0 to 100 scale), Morningglory: 0
[5]; Preemergence, 125 g ai/ha
  Morningglory plant response rating (0 = no effect, 100 = complete control): 0
[5]; Preemergence, 500 g ai/ha
  Plant response rating (0 to 100 scale), Morningglory: 0
[6]; Postemergence, 125 g ai/ha
  Plant response rating (0 to 100 scale), Crabgrass, Large: 0
[6]; Postemergence, 500 g ai/ha
  Plant response rating (0 to 100 scale), Crabgrass, Large: 0
[6]; Preemergence, 125 g ai/ha
  Crabgrass, Large plant response rating (0 = no effect, 100 = complete control): 0
[6]; Preemergence, 500 g ai/ha
  Plant response rating (0 to 100 scale), Crabgrass, Large: 0
[7]; Postemergence, 125 g ai/ha
  Plant response rating (0 to 100 scale), Pigweed: 80
[7]; Postemergence, 500 g ai/ha
  Plant response rating (0 to 100 scale), Pigweed: 100
[7]; Preemergence, 125 g ai/ha
  Pigweed plant response rating (0 = no effect, 100 = complete control): 100
[7]; Preemergence, 500 g ai/ha
  Plant response rating (0 to 100 scale), Pigweed: 100
[8]; Postemergence, 62 g ai/ha
  Plant response rating (0 to 100), Velvetleaf: 65
[8]; Postemergence, 125 g ai/ha
  Plant response rating (0 to 100), Velvetleaf: 70
[8]; [12]
  Plant response rating, Velvetleaf: 75
[8]; [13]
  Plant response rating, Velvetleaf: 75
[8]; Preemergence, 62 g ai/ha
  Plant response rating, Velvetleaf: 10
[8]; Preemergence, 125 g ai/ha
  Plant response rating, Velvetleaf: 40
[8]; Preemergence, 250 g ai/ha
  Plant response rating, Velvetleaf: 65
[8]; Preemergence, 500 g ai/ha
  Plant response rating, Velvetleaf: 60
[9]; Postemergence, 62 g ai/ha
  Plant response rating (0 to 100), Johnsongrass: 0
[9]; Postemergence, 125 g ai/ha
  Plant response rating (0 to 100), Johnsongrass: 0
[9]; [12]
  Plant response rating, Johnsongrass: 0
[9]; [13]
  Plant response rating, Johnsongrass: 10
[9]; Preemergence, 62 g ai/ha
  Plant response rating, Johnsongrass: 0
[9]; Preemergence, 125 g ai/ha
  Plant response rating, Johnsongrass: 0
[9]; Preemergence, 250 g ai/ha
  Plant response rating, Johnsongrass: 0
[9]; Preemergence, 500 g ai/ha
  Plant response rating, Johnsongrass: 0
[10]; Postemergence, 62 g ai/ha
  Plant response rating (0 to 100), Lambsquarters: 75
[10]; Postemergence, 125 g ai/ha
  Plant response rating (0 to 100), Lambsquarters: 95
[10]; [12]
  Plant response rating, Lambsquarters: 98
[10]; [13]
  Plant response rating, Lambsquarters: 98
[10]; Preemergence, 62 g ai/ha
  Plant response rating, Lambsquarters: 100
[10]; Preemergence, 125 g ai/ha
  Plant response rating, Lambsquarters: 100
[10]; Preemergence, 250 g ai/ha
  Plant response rating, Lambsquarters: 100
[10]; Preemergence, 500 g ai/ha
  Plant response rating, Lambsquarters: 100
[11]; Postemergence, 62 g ai/ha
  Plant response rating (0 to 100), Morningglory: 0
[11]; Postemergence, 125 g ai/ha
  Plant response rating (0 to 100), Morningglory: 0
[11]; [12]
  Plant response rating, Morningglory: 0
[11]; [13]
  Plant response rating, Morningglory: 55
[11]; Preemergence, 62 g ai/ha
  Plant response rating, Morningglory: 0
[11]; Preemergence, 125 g ai/ha
  Plant response rating, Morningglory: 0
[11]; Preemergence, 250 g ai/ha
  Plant response rating, Morningglory: 0
[11]; Preemergence, 500 g ai/ha
  Plant response rating, Morningglory: 0
